We go through seven compounds from PubChem BioAssay (NCI).

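48-hour exposure; five concentrations; linearly interpolated endpoints. The concentration for 50% growth inhibition is given as GI50. TGI is the concentration that stops growth completely.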

Some test systems named below: HCT-116 colon; HOP-92 NSCLC; NCI-H226 lung; RPMI-8226 leukemia; OVCAR-8 ovarian; OVCAR-4 ovarian; OVCAR-5 ovarian; BT-549 breast; NCI/ADR-RES ovarian; MDA-MB-435.
Experiment in all cases: NCI-60 cell line screen, 48 h

For `CCCN1C(=O)N(CCC)C2C1NC(=S)N2/N=C/C=C/c1ccccc1OC` (configuration not stated), the GI50 with HCT-116 colon is 0.445 µM; with HOP-92 NSCLC it was 0.624 µM; in the test on NCI-H226 lung, 4.17 µM; with RPMI-8226 leukemia it was 0.69 µM; with OVCAR-8 ovarian it was 1.56 µM; in the test on OVCAR-4 ovarian, 1.95 µM. The GI50 was 3.61 µM in the test with OVCAR-5 ovarian, 2.77 µM in the test with BT-549 breast and 0.498 µM with NCI/ADR-RES ovarian. Moreover, the TGI in the test on HCT-116 colon was more than 100 µM; in the test with HOP-92 NSCLC, more than 100 µM; in the test with NCI-H226 lung, more than 43.9 µM; in the test on RPMI-8226 leukemia, 16.7 µM; in the test on OVCAR-8 ovarian, more than 62.6 µM; in the test on OVCAR-4 ovarian it was more than 100 µM. The TGI with OVCAR-5 ovarian is more than 100 µM; in the test on BT-549 breast, 32.9 µM; with NCI/ADR-RES ovarian, more than 100 µM.
`COc1ccc(/C=C2/N=C(c3ccccc3)N(c3c(C)n(C)n(-c4ccccc4)c3=O)C2=O)cc1OC`: the GI50 in the test with HCT-116 colon, with HOP-92 NSCLC, in the test with NCI-H226 lung, with RPMI-8226 leukemia, in the test with MDA-MB-435 and in the test with OVCAR-8 ovarian was more than 100 µM in each case. Besides, the GI50 with OVCAR-4 ovarian, with OVCAR-5 ovarian and in the test with NCI/ADR-RES ovarian was more than 100 µM throughout. Besides, the TGI with HCT-116 colon, with HOP-92 NSCLC, in the test on NCI-H226 lung, in the test with RPMI-8226 leukemia, with MDA-MB-435 and in the test on OVCAR-8 ovarian was more than 100 µM throughout. Moreover, the TGI in the test with OVCAR-4 ovarian, in the test on OVCAR-5 ovarian and in the test on NCI/ADR-RES ovarian was more than 100 µM throughout.
On to `COc1cc2c(cc1OCCCNC(=O)c1cccc3c(=O)c4ccccc4[nH]c13)N=C[C@@H]1CCCN1C2=O`, for which the GI50 was less than 0.01 µM with HCT-116 colon; less than 0.01 µM with HOP-92 NSCLC; less than 0.01 µM in the test with NCI-H226 lung; 0.01 µM in the test with OVCAR-8 ovarian; less than 0.01 µM in the test with OVCAR-4 ovarian; less than 0.01 µM in the test with OVCAR-5 ovarian. The figures for the GI50 with BT-549 breast and in the test on NCI/ADR-RES ovarian were less than 0.01 µM and 0.379 µM, respectively. The TGI in the test on HCT-116 colon is more than 100 µM; in the test on HOP-92 NSCLC it was 49.6 µM; with NCI-H226 lung it was less than 0.01 µM; with OVCAR-4 ovarian, 10.8 µM; with OVCAR-5 ovarian, 30.6 µM; with BT-549 breast, less than 0.0437 µM. The same compound yielded a TGI with NCI/ADR-RES ovarian of more than 26.4 µM.
Turning to `COc1cc(Cn2c(-c3ccccc3)c(Cl)c3c2-c2oncc2CC3)cc(OC)c1`, the GI50 is 3.47 µM in the test on HCT-116 colon; 50 µM in the test with HOP-92 NSCLC; 13 µM in the test on NCI-H226 lung; 7.11 µM in the test with RPMI-8226 leukemia; 2.26 µM in the test on MDA-MB-435; 15.9 µM with OVCAR-8 ovarian. In addition, the GI50 was 6.57 µM in the test with OVCAR-4 ovarian, 47 µM in the test on OVCAR-5 ovarian and 2.58 µM in the test with NCI/ADR-RES ovarian. The TGI in the test with HCT-116 colon is 14.9 µM; with HOP-92 NSCLC it was more than 100 µM; with NCI-H226 lung, 43.3 µM; with RPMI-8226 leukemia, more than 100 µM; in the test with MDA-MB-435 it was 5.97 µM; with OVCAR-8 ovarian, more than 100 µM. Moreover, the results for the TGI with OVCAR-4 ovarian, with OVCAR-5 ovarian and in the test on NCI/ADR-RES ovarian were 79.8 µM, more than 100 µM and 8.96 µM, respectively.
Turning to `Cc1c2c(C#N)nccc2c(C)c2c1c1ccccc1n2Cc1ccccc1`, the TGI in the test with HCT-116 colon, with HOP-92 NSCLC, with NCI-H226 lung, in the test with RPMI-8226 leukemia, with MDA-MB-435 and in the test with OVCAR-8 ovarian was more than 100 µM each time. For the same compound, the TGI in the test with OVCAR-4 ovarian, in the test with OVCAR-5 ovarian and in the test on NCI/ADR-RES ovarian was more than 100 µM each time.
Turning to `CCOC(=O)Nc1ccc(C)c(NC(=O)OCC)c1`, the TGI with HCT-116 colon, in the test on HOP-92 NSCLC, in the test with NCI-H226 lung, with RPMI-8226 leukemia, in the test on MDA-MB-435 and in the test on OVCAR-8 ovarian was more than 100 µM each time. Besides, the TGI in the test with OVCAR-5 ovarian and in the test with NCI/ADR-RES ovarian was more than 100 µM throughout.
For `O=C(Nc1ccncc1)C(=O)c1cn(S(=O)(=O)c2ccc(F)cc2)c2ccccc12`, the GI50 is 0.781 µM in the test on HCT-116 colon; 9.15 µM in the test on NCI-H226 lung; 2.54 µM in the test on RPMI-8226 leukemia; 4.33 µM with OVCAR-8 ovarian; 23.1 µM with OVCAR-4 ovarian; 7.96 µM in the test with OVCAR-5 ovarian. Also, the GI50 in the test on BT-549 breast was 1.58 µM; in the test on NCI/ADR-RES ovarian, 1.76 µM. In addition, the TGI is 34.1 µM in the test on HCT-116 colon; more than 100 µM in the test with NCI-H226 lung; more than 100 µM in the test with RPMI-8226 leukemia; more than 100 µM with OVCAR-8 ovarian; more than 100 µM in the test on OVCAR-4 ovarian; more than 100 µM in the test on OVCAR-5 ovarian. Moreover, the TGI with BT-549 breast was 39.9 µM; in the test on NCI/ADR-RES ovarian, more than 100 µM.
